Results from patent publication US8017612B2, “Piperazine compound and use thereof as a HCV polymerase inhibitor” (priority 2006, dated 2011).

Legend:
[1] = target: T1, HCV polymerase (NS5B) type 1b (Hepatitis C virus genotype 1b, UniProt P26663); experiment: Assay of enzyme (HCV polymerase) inhibitory activity, type 1b enzyme; assay type: biochemical, HCV BK strain (type 1b); settings: HCV polymerase inhibitory activity IC50, 1b, type 1b enzyme
T1 construct: a region encoding NS5B (J Virol 1991 March, 65(3), 1105-13, 544 amino acids after deletion of 47 amino acids on the C-terminal); 6xHis (C); made in house; host or cells: Escherichia coli
Procedure, shortened: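 Rxn: NS5B 1b (BK, ΔC47, His6) 0.5 μg/ml; substrate RNA 5 μg/ml; ATP/GTP/CTP 50 μM, UTP 2 μM + [5,6-3H]UTP; 20 mM Tris pH 7.5, 5 mM MgCl2, 50 mM NaCl, 1 mM EDTA/DTT. 25 °C, 60 min. Stop with TCA/pyrophosphate, filter, scintillation count; IC50 vs. untreated.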

[2] = target: T2, HCV polymerase (NS5B) type 1a (Hepatitis C virus genotype 1a, UniProt P26664); experiment: Assay of enzyme (HCV polymerase) inhibitory activity, type 1a enzyme; assay type: biochemical, HCV type 1a (cloned from the blood of patients); settings: HCV polymerase inhibitory activity IC50, 1a, type 1a enzyme
T2 construct: made in house; host or cells: Escherichia coli (by the 'similar method' of the 1b enzyme)
Procedure, shortened: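 NS5B Δ47 C-term His6 (type 1a, 1.5 μg/ml); substrate RNA 5 μg/ml; ATP/GTP/CTP 50 μM, UTP 2 μM + [5,6-3H]UTP; Tris pH 7.5, MgCl2 5 mM; 25° C, 60 min. TCA/pyrophosphate stop, GF/B filter, scintillation. IC50 vs no-compound control.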

SMILES	IC50 [1]	IC50 [2]
O=C(NCc1ccc(OC(F)(F)F)cc1)[C@H]1CN(c2nc3nc(C4CC4)ncc3s2)CCN1S(=O)(=O)c1ccc(C2CC2)cc1 [Example 1099, (R)-1-(4-cyclopropyl-benzenesulfonyl)-4-(5-cyclopropyl-thiazolo [4,5-d]pyrimidin-2-yl)-piperazine-2-carboxylic acid 4-trifluoromethoxy-benzylamide]	< 100 nM	< 100 nM
O=C(NCc1ccc(OC(F)(F)F)cc1)[C@H]1CN(c2nc3nc(C(F)(F)F)ncc3s2)CCN1S(=O)(=O)c1ccc(C2CC2)cc1 [Example 1100, (R)-4-(5-trifluoromethyl-thiazolo[4,5-d]pyrimidin-2-yl)-1-(4-cyclopropyl-benzenesulfonyl)-piperazine-2-carboxylic acid 4-trifluoromethoxy-benzylamide]	< 100 nM	< 100 nM
O=C(NCc1ccc(OC(F)(F)F)c(F)c1)[C@H]1CN(c2nc3nc(C4CC4)ncc3s2)CCN1S(=O)(=O)c1ccc(C(F)(F)F)cc1 [Example 1101, (R)-4-(5-cyclopropyl-thiazolo[4,5-d]pyrimidin-2-yl)-1-(4-trifluoromethyl-benzenesulfonyl)-piperazine-2-carboxylic acid 3-fluoro-4-trifluoromethoxy-benzylamide]	< 100 nM	< 100 nM
O=C(NCc1ccc(OC(F)(F)F)c(F)c1)[C@H]1CN(c2nc3nc(C4CC4)ncc3s2)CCN1S(=O)(=O)c1ccc(OC(F)(F)F)cc1 [Example 1102, (R)-4-(5-cyclopropyl-thiazolo[4,5-d]pyrimidin-2-yl)-1-(4-trifluoromethoxy-benzenesulfonyl)-piperazine-2-carboxylic acid 3-fluoro-4-trifluoromethoxy-benzylamide]	< 100 nM	< 100 nM
CC(=O)N1CCN(S(=O)(=O)c2ccc(OC(F)(F)F)cc2)[C@@H](C(=O)NCc2ccc(OC(F)(F)F)c(F)c2)C1 [Example 1103, (R)-4-acetyl-1-(4-trifluoromethoxy-benzenesulfonyl)-piperazine-2-carboxylic acid 3-fluoro-4-trifluoromethoxy-benzylamide]	100 to 1000 nM	100 to 1000 nM
O=C(O)c1cncc2sc(N3CCN(S(=O)(=O)c4ccc(OC(F)(F)F)cc4)[C@@H](C(=O)NCc4ccc(OC(F)(F)F)cc4)C3)nc12 [Example 1104, 2-[(R)-4-(4-trifluoromethoxy-benzenesulfonyl)-3-(4-trifluoromethoxy-benzylcarbamoyl)-piperazin-1-yl]-thiazolo[5,4-c]pyridine-7-carboxylic acid]	< 100 nM	< 100 nM
O=C(NCc1ccc(OC(F)(F)F)cc1)[C@H]1CN(c2nn3c(CO)cc(=O)nc3s2)CCN1S(=O)(=O)c1ccc(OC(F)(F)F)cc1 [Example 1105]	< 100 nM	100 to 1000 nM
O=C(O)Cn1ncc2sc(N3CCN(S(=O)(=O)c4ccc(OC(F)(F)F)cc4)[C@@H](C(=O)NCc4ccc(OC(F)(F)F)cc4)C3)nc2c1=O [Example 1106, {4-oxo-2-[(R)-4-(4-trifluoromethoxy-benzenesulfonyl)-3-(4-trifluoromethoxy-benzylcarbamoyl)-piperazin-1-yl]-4H-thiazolo[4,5-d]pyridazin-5-yl}-acetic acid]	< 100 nM	< 100 nM
O=C(NCc1ccc(OC(F)(F)F)cc1)[C@H]1CN(c2nc3nc(C4CC4)[nH]c(=O)c3s2)CCN1S(=O)(=O)c1ccc(C(F)(F)F)cc1 [Example 1107, (R)-4-(5-cyclopropyl-7-oxo-6,7-dihydro-thiazolo[4,5-d]pyrimidin-2-yl)-1-(4-trifluoromethyl-benzenesulfonyl)-piperazine-2-carboxylic acid 4-trifluoromethoxy-benzylamide]	< 100 nM	100 to 1000 nM
O=C(NCc1ccc(OC(F)(F)F)cc1)[C@H]1CN(c2nc3nc(C4CC4)[nH]c(=O)c3s2)CCN1S(=O)(=O)c1ccc(OC(F)(F)F)cc1 [Example 1108, (R)-4-(5-cyclopropyl-7-oxo-6,7-dihydro-thiazolo[4,5-d]pyrimidin-2-yl)-1-(4-trifluoromethoxy-benzenesulfonyl)-piperazine-2-carboxylic acid 4-trifluoromethoxy-benzylamide]	< 100 nM	100 to 1000 nM
O=C(O)c1cncc2sc(N3CCN(S(=O)(=O)c4ccc(OC(F)(F)F)cc4)[C@@H](C(=O)NCc4ccc(OC(F)F)c(F)c4)C3)nc12 [Example 1109, 2-[(R)-3-(4-difluoromethoxy-3-fluoro-benzylcarbamoyl)-4-(4-trifluoromethoxy-benzenesulfonyl)-piperazin-1-yl]-thiazolo[5,4-c]pyridine-7-carboxylic acid]	< 100 nM	< 100 nM
O=C(NCc1ccc(OC(F)(F)F)cc1)[C@H]1CN(c2nc3nc(C4CC4)ncc3s2)CCN1S(=O)(=O)c1ccc(OC(F)(F)F)cc1F [Example 1110, (R)-4-(5-cyclopropyl-thiazolo[4,5-d]pyrimidin-2-yl)-1-(2-fluoro-4-trifluoromethoxy-benzenesulfonyl)-piperazine-2-carboxylic acid 4-trifluoromethoxy-benzylamide]	< 100 nM	< 100 nM
O=C(O)c1cnc(N2CCN(S(=O)(=O)c3ccc(OC(F)(F)F)cc3)[C@@H](C(=O)NCc3ccc(OC(F)F)c(F)c3)C2)cn1 [Example 1111, (R)-3-(4-difluoromethoxy-3-fluoro-benzylcarbamoyl)-4-(4-trifluoromethoxy-benzenesulfonyl)-3,4,5,6-tetrahydro-2H-[1,2′]bipyrazinyl-5′-carboxylic acid]	< 100 nM	< 100 nM
O=C(O)CCn1ncc2sc(N3CCN(S(=O)(=O)c4ccc(OC(F)(F)F)cc4)[C@@H](C(=O)NCc4ccc(OC(F)(F)F)cc4)C3)nc2c1=O [Example 1112, 3-{4-oxo-2-[(R)-4-(4-trifluoromethoxy-benzenesulfonyl)-3-(4-trifluoromethoxy-benzylcarbamoyl)-piperazin-1-yl]-4H-thiazolo[4,5-d]pyridazin-5-yl}propionic acid]	< 100 nM	< 100 nM
O=C(NCc1ccc(OC(F)F)c(F)c1)[C@H]1CN(c2nc3nc(C4CC4)[nH]c(=O)c3s2)CCN1S(=O)(=O)c1ccc(OC(F)(F)F)cc1 [Example 1113, (R)-4-(5-cyclopropyl-7-oxo-6,7-dihydro-thiazolo[4,5-d]pyrimidin-2-yl)-1-(4-trifluoromethoxy-benzenesulfonyl)-piperazine-2-carboxylic acid 4-difluoromethoxy-3-fluoro-benzylamide]	< 100 nM	< 100 nM
O=C(NCc1ccc(OC(F)F)c(F)c1)[C@H]1CN(c2nc3nc(C4CC4)[nH]c(=O)c3s2)CCN1S(=O)(=O)c1ccc(C(F)(F)F)cc1 [Example 1114, (R)-4-(5-cyclopropyl-7-oxo-6,7-dihydro-thiazolo[4,5-d]pyrimidin-2-yl)-1-(4-trifluoromethyl-benzenesulfonyl)-piperazine-2-carboxylic acid 4-difluoromethoxy-3-fluoro-benzylamide]	< 100 nM	< 100 nM
CC(=O)N1CCN(S(=O)(=O)c2ccc(C(C)C)cc2)C(C(=O)NCc2ccc(C(F)(F)F)cc2)C1 (centres unmarked) [Example 1115, 4-acetyl-1-(4-isopropyl-benzenesulfonyl)-piperazine-2-carboxylic acid 4-trifluoromethyl-benzylamide]	> 1000 nM	100 to 1000 nM
CC(=O)N1CCN(S(=O)(=O)c2ccc(C(C)C)cc2)[C@@H](C(=O)NCc2ccc(C(F)(F)F)cc2)C1 [Example 1116, (R)-4-acetyl-1-(4-isopropyl-benzenesulfonyl)-piperazine-2-carboxylic acid 4-trifluoromethyl-benzylamide]	100 to 1000 nM	100 to 1000 nM
CC(=O)N1CCN(S(=O)(=O)c2ccc(C(C)C)cc2)[C@H](C(=O)NCc2ccc(C(F)(F)F)cc2)C1 [Example 1117, (S)-4-acetyl-1-(4-isopropyl-benzenesulfonyl)-piperazine-2-carboxylic acid 4-trifluoromethyl-benzylamide]	> 1000 nM	> 1000 nM
O=C(O)Cn1ncc2sc(N3CCN(S(=O)(=O)c4ccc(OC(F)(F)F)cc4)[C@@H](C(=O)NCc4ccc(OC(F)F)c(F)c4)C3)nc2c1=O [Example 1121]	< 100 nM	< 100 nM
O=C(O)c1cnc(N2CCN(S(=O)(=O)c3ccc(C(F)(F)F)cc3)[C@@H](C(=O)NCc3ccc(OC(F)F)c(F)c3)C2)cn1 [Example 1122]	< 100 nM	< 100 nM
NC(=O)c1cncc2sc(N3CCN(S(=O)(=O)c4ccc(OC(F)(F)F)cc4)[C@@H](C(=O)NCc4ccc(OC(F)(F)F)cc4)C3)nc12 [Example 1123]	< 100 nM	< 100 nM
